In article PMC11241769, “Comprehensive Characterization of Phytochemical Composition, Membrane Permeability, and Antiproliferative Activity of Juglans nigra Polyphenols” (International Journal of Molecular Sciences, 2024):
Like-named read-outs stand apart in the source and are kept apart here.

Assays:
[1] = chemical stability in the aqueous solutions/buffer of the PAMPA experiments (UHPLC-DAD)
Protocol: Quantities of the isolated compounds in the PAMPA experiments (14, 58, 74, 86, 92, 106, 141, and 143) were determined by UHPLC-DAD. The Juglans extracts were analyzed by an ACQUITY UPLC H-Class PLUS System equipped with a quaternary solvent delivery pump (QSM), an auto-sampler manager (FTN), a column compartment (CM), and a photodiode array (PDA) detector (Waters Corporation). An Acquity BEH C18 column (100 × 2.1 mm i.d., 1.7 µm; Waters Corporation) maintained at 30 °C was used as stationary phase. Eluent A was 0.3% acetic acid in water and eluent B was acetonitrile, the following gradient elution was applied (flow rate: 0.3 mL/min): 5.0–100.0% B (0.0–11.0 min), 100.0–5.0% B (11.0–11.5 min), 5% B (11.5–15.0 min). The injection volume was 5 µL and chromatograms were recorded at 200–400 nm. The chromatograms acquired at the UV absorption maxima of each compound were used for data evaluation.
Stock solutions (10 mM in methanol) were diluted with the defined buffer (pH 7.4 for the PAMPA-BBB and pH 6.8 for the PAMPA-GI assays) to obtain the donor solutions (composition: 594.0 μL buffer + 6.0 μL stock solution). The buffers were prepared as follows: pH = 6.8: 20.2 g Na2HPO4 ∙ 7H2O and 3.4 g NaH2PO4 ∙ H2O dissolved in distilled water to achieve the final volume of 1000.0 mL, pH adjustment with 0.5 M NaOH or 0.5 M HCl; pH = 7.4: one PBS tablet (Phosphate Buffered Saline, pH 7.4; Sigma Aldrich) dissolved in 200.0 mL distilled water. Donor solutions were filtered through Phenex-RC 15 mm, 0.2 μm syringe filters (Gen-Lab Ltd., Budapest, Hungary).

[2] = PAMPA-GI (parallel artificial membrane permeability assay, phosphatidylcholine membrane); format: in vitro ADME
Protocol: (§1) For the PAMPA-BBB test, 5 μL of porcine polar brain lipid extract (PBLE) solution (16.0 mg PBLE + 8.0 mg cholesterol dissolved in 600.0 μL n-dodecane) was applied for each well of the 96-well polycarbonate-based filter donor plates (top plate) (Multiscreen™-IP, MAIPN4510, pore size 0.45 μm; Merck). For the PAMPA-GI assay, the wells of the top plate were coated with 5 μL of the mixture of 16.0 mg phosphatidylcholine + 8.0 mg cholesterol dissolved in 600.0 μL n-dodecane. A measure of 150.0 μL of aliquots of the filtrated donor solutions were placed on the membrane. The 96-well PTFE acceptor plates (bottom plates) (Multiscreen Acceptor Plate, MSSACCEPTOR; Merck), were filled with 300.0 μL buffer solution (0.01 M PBS buffer, pH 7.4). The donor plate was placed upon the acceptor plate, and both plates were incubated together at 37 °C for 4 h in a Heidolph Titramax 1000 Vibrating platform shaker (Heidolph, Schwabach, Germany).
(§2) After incubation, sandwich plates were separated and the concentrations of each compound in the starting donor solution and in the acceptor and donor wells were determined in triplicate by UHPLC-DAD method described above. […] The effective permeability and the membrane retention in the PAMPA-BBB and the PAMPA GI experiments were calculated by Equations (4)–(7), respectively:(4) Pe=−2.303/A(t−τSS)·VA·VD/VA+VD·lg1−VA+VD/1−MR·VD×CAt/CD0 (5) Pe=−2.303/A(t−τSS)·1/1+ra·lg−ra+1+ra/1−MR×CDt/CD0 where Pe is the effective permeability coefficient (cm/s), A is the filter area (0.24 cm^2), VD and VA are the volumes in the donor (0.15 cm^3) and acceptor phases (0.30 cm^3), t is the incubation time (s), τSS is the time (s) to reach steady-state (240 s), CD(t) is the concentration (mol/cm^3) of the compound in the donor phase at time t, CD(0) is the concentration (mol/cm^3) of the compound in the donor phase at time 0, and MR is the estimated membrane retention factor (the estimated mole fraction of solute lost to the membrane), ra is the sink asymmetry ratio (gradient-pH-induced), defined as:(6) ra=VD/VA×Pe(A→D)/Pe(D→A) (7) MR=1−CDt/CD0−VA/VDCAt/CD0
(§3) All experiments were performed in three triplicates on three consecutive days (n = 9), caffeine standard was used as positive, while rutin as negative control. ClogP values were calculated by ChemAxon Marvin 22.3.

[3] = PAMPA-BBB (parallel artificial membrane permeability assay, porcine polar brain lipid extract); format: in vitro ADME
Protocol: as §1, §2, §3

[4] = system: MDA-MB 231, A2058, HT-29 and Vero E6 cells; assay: in vitro cytostasis, Alamar Blue assay, cell lines taken together; format: cell-based; details: tumor cell lines (MDA-MB 231, A2058, HT-29)
Protocol: (§4) For the evaluation of the in vitro antiproliferative activity of the compounds, the cell viability was determined by resazurin (Alamar Blue) assay on MDA-MB 231 breast carcinoma, A2058 melanoma, and HT-29 colon carcinoma cell culture. The control wells were treated only with serum-free medium.
(§5) To determine the selectivity, we assessed the compounds on the Vero E6 non-tumorous kidney cells from African green monkeys (C. sabaeus), and their cytostatic activity was determined (Table 3).
(§6) The cytostatic effect of the compounds was studied on tumor cell cultures in vitro. MDA-MB-231 human breast adenocarcinoma cells were cultured in DMEM medium supplemented with 10% FBS, 2 mM L-glutamine, penicillin–streptomycin antibiotics mixture (50 IU/mL, and 50 μg/mL, respectively), 1 mM sodium pyruvate, and 1% non-essential amino acid mixture. A2058 human melanoma cells, and HT-29 colorectal carcinoma cells were cultured in RPMI medium supplemented with 10% FBS, 2 mM L-glutamine, and penicillin–streptomycin antibiotics mixture (50 IU/mL and 50 μg/mL, respectively). Cell lines were generous gifts from Dr. József Tóvári (Department of Experimental Pharmacology, National Institute of Oncology, Budapest, Hungary).
(§7) For the selectivity study, a non-human primate cell culture was used. Vero E6 cells were established from kidney tissue sampled from an African green monkey (C. sabaeus) They originated from a primary culture initiated in March 1962 by Yoshihiro Yasumura at Chiba University in Japan. Vero E6 cells were obtained from the European Collection of Authenticated Cell Cultures (ECACC 85020206) and maintained in DMEM high-glucose (4.5 g/L) medium (Lonza, Basel, Switzerland) containing 10% FBS (Gibco, Thermo Fisher Scientific) and supplemented with 2 mM of L-glutamine (Lonza), 1 mM sodium pyruvate (Merck), and CellCultureGuard (PanReacApplichem, ITW Reagents, Darmstadt, Germany) at 37 °C in a humidified atmosphere of 5% CO2.
(§8) All cell cultures were maintained at 37 °C in a humidified atmosphere with 5% CO2. The cells were grown to confluence and then divided into 96-well tissue culture plates with the initial cell number of 5.0 × 10^3 cells/well. […] Control cells were treated with serum-free medium or DMSO (c = 1.0 v/v %) at the same conditions. After this incubation period, cells were washed twice with serum-free medium, and following that, they were cultured for another 72 h in a 10% serum-containing medium at 37 °C. After that, cell viability was determined using the Alamar Blue assay. Alamar Blue is a non-toxic, resazurin-based dye that living cells reduce to a fluorescent molecule, resorufin [99]. Resazurin sodium salt (Merck, Darmstadt, Germany) was dissolved in PBS at c = 0.15 mg/mL, pH 7.4). A measure of 22 uL of the dye was added to each well and incubated at 37 °C for 3 h until the pink color of the reduced dye appeared. Fluorescence intensity in each well was measured using a Synergy H4 multimode microplate reader (BioTek, Winooski, VT); at λex = 530/30 and λem = 610/10 nm.
(§9) The cytostasis values were expressed in the percentage of untreated control.

[5] = system: Vero E6 non-tumorous kidney cells; assay: selectivity study: cytostatic activity on non-tumorous Vero E6 cells, Alamar Blue assay; format: cell-based, African green monkey (C. sabaeus); details: Vero E6 non-tumorous kidney cells
Protocol: as §5, §7, §8, §9

cell culture = system: cell culture; design: method as in PMID 34217043; details: read-out: concentration causing 50% inhibition; depending on cell culture; cited from earlier work
[6] = system: A2058 human melanoma cells; assay: in vitro cytostatic (antiproliferative) activity, Alamar Blue (resazurin) assay, A2058; format: cell-based
Protocol: as §4, §6, §8, §9

[7] = system: HT-29 colorectal carcinoma cells; assay: in vitro cytostatic (antiproliferative) activity, Alamar Blue (resazurin) assay, HT-29; format: cell-based; details: Homo sapiens; in vitro cytostatic activity, Alamar Blue (resazurin) assay, HT-29 colon carcinoma cell culture; read-out: IC50 (µM) HT-29
Protocol: as §4, §6, §8, §9

[8] = system: MDA-MB-231 human breast adenocarcinoma cells; assay: in vitro cytostatic (antiproliferative) activity, Alamar Blue (resazurin) assay, MDA-MB 231; format: cell-based; details: in vitro cytostatic activity, Alamar Blue (resazurin) assay, MDA-MB 231 breast carcinoma cell culture, read-out: IC50 (µM) MDA-MB 231
Protocol: as §4, §6, §8, §9

With `O=c1c(O[C@@H]2OC[C@@H](O)[C@H](O)[C@H]2O)c(-c2ccc(O)c(O)c2)oc2cc(O)cc(O)c12` [Compound 74, quercetin-3-O-xyloside (reynoutrin)] the “degradation in the pH 7.4 buffer” value ([1]; pH 7.4) was “significant degree of degradation”, the “logPe PAMPA-GI (n = 9)” value ([2]; donor pH 6.8, acceptor pH 7.4, 37 °C, 4 h, n.d. = not detected in the acceptor phase) was “not detected in the acceptor phase” and the “logPe PAMPA-BBB (n = 9)” value ([3]; donor pH 7.4, acceptor pH 7.4, 37 °C, 4 h, n.d. = not detected in the acceptor phase) was “not detected in the acceptor phase”. The “effect on the tumor cell lines” value [4] was “no effect” and the “IC50 (cytostatic activity) on the Vero E6 cells” value ([5]; selectivity) was “not cytostatic”.
In the case of `C/C=C/C1=CC=C/C(=C2\C(=O)CNC2=O)O1` [vermelhotin], the IC50 (cell culture) is given as 12 to 20 µM.
In the case of `O=C1C=CC(=O)c2c(O)cccc21` [Compound 141, juglone], the “additional minor compounds appeared in the aqueous solutions prepared for the PAMPA experiments” value ([1]; based on UHPLC-DAD, aqueous donor solutions) is reported as < 10%, the IC50 ([6]; A2058 melanoma, treatment overnight, then 72 h culture, Alamar Blue, read-out: IC50 (antiproliferative effect) on the melanoma culture) is reported as 15.5 µM and the IC50 ([6]; in vitro cytostatic activity, Alamar Blue (resazurin) assay, A2058 melanoma cell culture, read-out: IC50 (µM) A2058) is reported as 13.5 ± 0.7 µM. For the same compound, the IC50 [7] was 0.53 ± 0.1 µM, the Papp at 4 h, 100 µM ([2]; PAMPA, read-out: logPe PAMPA-GI (n = 9) (converted)) was 38.9 ×10⁻⁶ cm/s and the Papp at 4 h, 100 µM ([3]; pig, PAMPA, pH 7.4, read-out: logPe PAMPA-BBB (n = 9) (converted)) was 77.6 ×10⁻⁶ cm/s. It also gave an IC50 [8] of 9.9 ± 0.7 µM and an IC50 ([5]; Chlorocebus sabaeus, Vero C1008, in vitro cytostatic activity, Alamar Blue assay, read-out: IC50 (µM) VERO E6 Non Tumorous) of 3.7 ± 0.7 µM.
